# Measured values published in patent US20160376286A1, “Pyrimidin-4-one derivatives and their use in the tratement, amelioration or prevention of a viral disease” (priority 2011, published 2016).
# Like-named read-outs stand apart in the source and are kept apart here.
# Test system: influenza A virus A/Aichi/2/68 (H3N2)
# Experiment: Cytopathic effect (CPE) assay H3N2 in MDCK cells
# Type: cell-based, influenza A virus (A/Aichi/2/68 (H3N2)); MDCK cells
# Conditions: for inhibition at 50 µM: Influenza A virus, H3N2, MDCK, read-out: CPE H3N2 reduction (%)
# Description: A possible measure of the […] antiviral activity of the compounds having the formula I or II is the CPE assay disclosed herein. […] In this connection, the reduction in the virus-mediated cytopathic effect (CPE) upon treatment with the compounds was calculated as follows: The cell viability of infected-treated and uninfected-treated cells was determined using an ATP-based cell viability assay (Promega). The response in relative luminescent units (RLU) of infected-untreated samples was subtracted from the response (RLU) of the infected-treated samples and then normalized to the viability of the corresponding uninfected sample resulting in % CPE reduction.
# The influenza A virus (IAV) was obtained from American Tissue Culture Collection (A/Aichi/2/68 (H3N2); VR-547). Virus stocks were prepared by propagation of virus on Mardin-Darby canine kidney (MDCK; ATCC CCL-34) cells and infectious titres of virus stocks were determined by the 50% tissue culture infective dose (TCID50) analysis as described in Reed, L. J., and H. Muench. 1938, Am. J. Hyg. 27:493-497.
# MDCK cells were seeded in 96-well plates at 2×10^4 cells/well using DMEM/Ham's F-12 (1:1) medium containing 10% foetal bovine serum (FBS), 2 mM L-glutamine and 1% antibiotics (all from PAA). Until infection the cells were incubated for 5 hrs at 37° C., 5.0% CO2 to form a -80% confluent monolayer on the bottom of the well. Each test compound was dissolved in DMSO and generally tested at 25 μM and 250 μM. In those cases where the compounds were not soluble at that concentration they were tested at the highest soluble concentration. The compounds were diluted in infection medium (DMEM/Ham's F-12 (1:1) containing 5 μg/ml trypsin, and 1% antibiotics) for a final plate well DMSO concentration of 1%. The virus stock was diluted in infection medium (DMEM/Ham's F-12 (1:1) containing 5 μg/m1Trypsin, 1% DMSO, and 1% antibiotics) to a theoretical multiplicity of infection (M01) of 0.05.
# After removal of the culture medium and one washing step with PBS, virus and compound were added together to the cells. In the wells used for cytotoxicity determination (i.e. in the absence of viral infection), no virus suspension was added. Instead, infection medium was added. Each treatment was conducted in two replicates. After incubation at 37° C., 5% CO2 for 48 hrs, each well was observed microscopically for apparent cytotoxicity, precipitate formation, or other notable abnormalities. Then, cell viability was determined using
# CellTiter-Glo luminescent cell viability assay (Promega). The supernatant was removed carefully and 65 μl of the reconstituted reagent were added to each well and incubated with gentle shaking for 15 min at room temperature. Then, 60 μl of the solution was transferred to an opaque plate and luminescence (RLU) was measured using Synergy HT plate reader (Biotek).
# Relative cell viability values of uninfected-treated versus uninfected-untreated cells were used to evaluate cytotoxicity of the compounds. Substances with a relative viability below 80% at the tested concentration were regarded as cytotoxic and retested at lower concentrations.
# Reduction in the virus-mediated cytopathic effect (CPE) upon treatment with the compounds was calculated as follows: The response (RLU) of infected-untreated samples was subtracted from the response (RLU) of the infected-treated samples and then normalized to the viability of the corresponding uninfected sample resulting in % CPE reduction.
smiles,measurement,setting,value
CN(C)S(=O)(=O)c1cccc(-c2ccnc(C(=O)N(O)Cc3ccccc3)c2)c1,CPE H3N2 reduction (%),activity conc 5,−1.8%
NC1CCN(c2ccnc(C(=O)N(O)Cc3ccccc3)c2)CC1,CPE H3N2 reduction (%),activity conc 50 (μM),3.2%
O=C(c1cc(N2CCC3(CC2)OCCO3)ccn1)N(O)Cc1ccccc1,CPE H3N2 reduction (%),activity conc 50 (μM),9.5%
CN(C)C(=O)c1cccc(-c2ccnc(C(=O)N(O)Cc3ccccc3)c2)c1,CPE H3N2 reduction (%),activity conc 50 (μM),5.3%
O=C(c1cc(-c2cccc(CO)c2)ccn1)N(O)Cc1ccccc1,CPE H3N2 reduction (%),activity conc 5,7.7%
CNC(=O)c1cccc(-c2ccnc(C(=O)N(O)Cc3ccccc3)c2)c1,CPE H3N2 reduction (%),activity conc 5,−7.5%
CC(C)(C)OC(=O)N1CCN(c2ccnc(C(=O)N(O)Cc3ccccc3)c2)CC1,CPE H3N2 reduction (%),activity conc 50 (μM),34%
CC1(C)C=C(c2ccnc(C(=O)N(O)Cc3ccccc3)c2)CC(C)(C)N1,CPE H3N2 reduction (%),activity conc 50 (μM),2.8%
Cl.O=C(c1cc(C2CCNCC2)ccn1)N(O)Cc1ccccc1,CPE H3N2 reduction (%),activity conc 50 (μM),−1.4%
Cl.O=C(NO)c1cc(NS(=O)(=O)Cc2ccc(F)cc2)ccn1,CPE H3N2 reduction (%),activity conc 50 (μM),−1.4%
Cl.Cl.O=C(c1cc(N2CCNCC2)ccn1)N(O)Cc1ccccc1,CPE H3N2 reduction (%),activity conc 50 (μM),−4.5%
Cl.O=C(NO)c1cc(NS(=O)(=O)Cc2cccc(F)c2)ccn1,CPE H3N2 reduction (%),activity conc 50 (μM),−2.4%
CN(c1ccnc(C(=O)NO)c1)S(=O)(=O)Cc1ccccc1,CPE H3N2 reduction (%),activity conc 5,−1.7%
O=C(c1cc(C2=CCC3(CC2)OCCO3)ccn1)N(O)Cc1ccccc1,CPE H3N2 reduction (%),activity conc 50 (μM),5.4%
COC1=CC=C(c2ccnc(C(=O)N(O)Cc3ccccc3)c2)CC1,CPE H3N2 reduction (%),activity conc 2,−2.5%
CC(C)(C)OC(=O)N1CCC(c2ccnc(C(=O)N(O)Cc3ccccc3)c2)CC1,CPE H3N2 reduction (%),activity conc 20,31.3%
CC(C)(C)OC(=O)N1C=C(c2ccnc(C(=O)N(O)Cc3ccccc3)c2)CCC1,CPE H3N2 reduction (%),activity conc 2,3.9%
CC(C)(C)OC(=O)N1CCC=C(c2ccnc(C(=O)N(O)Cc3ccccc3)c2)C1,CPE H3N2 reduction (%),activity conc 5,10.2%
O=C(c1cc(C2=CCCCC2)ccn1)N(O)Cc1ccccc1,CPE H3N2 reduction (%),activity conc 1,3.4%
Cl.O=C(c1cc(N2CCC(F)(F)CC2)ccn1)N(O)Cc1ccccc1,CPE H3N2 reduction (%),activity conc 50 (μM),−3.2%
CN1CC=C(c2ccnc(C(=O)N(O)Cc3ccccc3)c2)CC1,CPE H3N2 reduction (%),activity conc 50 (μM),10.6%
Cl.O=C(c1cc(NS(=O)(=O)Cc2ccc(F)cc2)ccn1)N(O)Cc1ccccc1,CPE H3N2 reduction (%),activity conc 50 (μM),−1.1%
Cl.O=C(c1cc(C2=CCCNC2)ccn1)N(O)Cc1ccccc1,CPE H3N2 reduction (%),activity conc 50 (μM),9.5%
CN1CCN(c2ccnc(C(=O)N(C)O)c2)CC1,CPE H3N2 reduction (%),activity conc 50 (μM),2.6%
CN(O)C(=O)c1cc(N2CCOCC2)ccn1,CPE H3N2 reduction (%),activity conc 50 (μM),5.7%
Cl.O=C(c1cc(NS(=O)(=O)Cc2cccc(F)c2)ccn1)N(O)Cc1ccccc1,CPE H3N2 reduction (%),activity conc 50 (μM),9.6%
O=C(c1cc(C2CCCNC2)ccn1)N(O)Cc1ccccc1 (centres unmarked),CPE H3N2 reduction (%),activity conc 50 (μM),6.1%
Cl.O=C(NO)c1cc(NS(=O)(=O)Cc2cc(Cl)cc(Cl)c2)ccn1,CPE H3N2 reduction (%),activity conc 20,28.9%
Cl.O=C(c1cc(N2CCC(F)CC2)ccn1)N(O)Cc1ccccc1,CPE H3N2 reduction (%),activity conc 50 (μM),34%
Cl.O=C(c1cc(N2CCC(F)(F)C2)ccn1)N(O)Cc1ccccc1,CPE H3N2 reduction (%),activity conc 20,4.6%
Cl.O=C(c1cc(NS(=O)(=O)Cc2cccc(Cl)c2)ccn1)N(O)Cc1ccccc1,CPE H3N2 reduction (%),activity conc 50 (μM),9.5%
Cl.O=C(c1cc(NS(=O)(=O)Cc2cccc(C(F)(F)F)c2)ccn1)N(O)Cc1ccccc1,CPE H3N2 reduction (%),activity conc 50 (μM),22.4%
CC(C)(C)OC(=O)N1C2C=C(c3ccnc(C(=O)N(O)Cc4ccccc4)c3)CC1CC2 (centres unmarked),CPE H3N2 reduction (%),activity conc 2,−5.3%
O=C(NO)c1cc(NS(=O)(=O)Cc2cc(Cl)cc(Cl)c2)ccn1,inhibition at 50 µM,activity conc 50 (μM),9.3%
O=C(NO)c1cc(NS(=O)(=O)Cc2cccc(C(F)(F)F)c2)ccn1,inhibition at 50 µM,activity conc 50 (μM),-5.8%
O=C(NO)c1cc(NS(=O)(=O)Cc2ccccc2Cl)ccn1,inhibition at 50 µM,activity conc 50 (μM),-1.5%
O=C(NO)c1ccccn1,CPE H3N2 reduction (%),activity conc 50 (μM),3.15%
O=C(c1cc(N2CCCCC2)cc[n+]1[O-])N(O)Cc1ccccc1,CPE H3N2 reduction (%),activity conc 5,−1.83%
O=C(NO)c1cc(NS(=O)(=O)Cc2ccc(Cl)cc2)ccn1,inhibition at 50 µM,activity conc 50 (μM),-3.88%
O=C(NO)c1cc(NS(=O)(=O)Cc2cccc(Cl)c2)ccn1,inhibition at 50 µM,,60.1%
O=C(NO)c1cc(NS(=O)(=O)Cc2cccc(Br)c2)ccn1,inhibition at 50 µM,activity conc 50 (μM),2.29%
